# Counter-ions that a name gives are not always drawn. Active and inactive are the calls of the source. The calls are words filed in the database; no cut-off is given here. Where a SMILES comes first, the peptide text is derived from it. The star is where a group is joined. Tfa = O=C(C(F)(F)F)*
# Key:
# Escherichia coli [1] = assay: Potentiation of polymyxin B-induced antibacterial activity against Escherichia coli assessed as polymyxin B MIC incubated for 24 hrs by microplate reader method; assay type: functional
# HeLa = assay: Cytotoxicity against human HeLa cells assessed as reduction in cell viability incubated for 48 hrs by MTT assay; assay type: cell-based
# Lipid bilayer [2] = assay: Binding affinity to bacterial inner membrane mimic POPE/POPG (3:1) LUVs assessed as increase in intensity by one-dimensional 19F NMR based analysis
# Escherichia coli [3] = assay: Synergistic antibacterial activity against Escherichia coli assessed as fractional inhibitory concentration index incubated for 24 hrs in presence of Polymyxin B; assay type: functional
# Staphylococcus aureus [4] = assay: Antibiofilm activity against Staphylococcus aureus assessed as biofilm eradication incubated for 24 hrs by crystal violet staining assay; assay type: functional
# Staphylococcus aureus [5] = assay: Antibiofilm activity against Staphylococcus aureus assessed as biofilm eradication at 2XMBEC incubated for 12 hrs by SYTO9/PI staining based microscopic analysis; assay type: functional, organism-based
# Pseudomonas aeruginosa [6] = assay: Antibacterial activity against Pseudomonas aeruginosa assessed as reduction in microbial growth after 24 hrs by microplate reader method; assay type: functional
# Escherichia coli [7] = assay: Antibacterial activity against Escherichia coli assessed as reduction in microbial growth after 24 hrs in presence of polymyxin B by microplate reader method; assay type: functional
# Staphylococcus aureus [8] = assay: Potentiation of streptomycin-induced antibacterial activity against Staphylococcus aureus assessed as fold change in streptomycin MIC incubated for 24 hrs by microplate reader method; assay type: functional
# Escherichia coli [9] = assay: Antibiofilm activity against Escherichia coli assessed as as inhibition of biofilm formation incubated for 48 hrs by crystal violet staining assay; assay type: functional
# Cell membrane [10] = assay: Disruption of membrane integrity in Staphylococcus aureus at 2 times MIC measured after 20 mins by SEM analysis
# Escherichia coli [11] = assay: Antibiofilm activity against Escherichia coli assessed as biofilm eradication incubated for 24 hrs by crystal violet staining assay; assay type: functional
# Staphylococcus aureus [12] = assay: Synergistic antibacterial activity against Staphylococcus aureus assessed as fractional inhibitory concentration index incubated for 24 hrs in presence of streptomycin; assay type: functional
# [13] = Hemolytic activity against mouse RBC at 1000 uM measured after 1 hr by microplate reader analysis; assay type: cell-based, Erythrocyte; settings: mouse red blood cells (erythrocytes), read-out: Activity
# Staphylococcus aureus [14] = assay: Antibacterial activity against Staphylococcus aureus assessed as reduction in microbial growth after 24 hrs in presence of streptomycin by microplate reader method; assay type: functional
# Staphylococcus aureus [15] = assay: Potentiation of streptomycin-induced antibacterial activity against Staphylococcus aureus assessed as streptomycin MIC incubated for 24 hrs by microplate reader method; assay type: functional
# Lipid bilayer [16] = assay: Binding affinity to mammalian membrane mimic DOPC/40% cholesterol assessed as calcein leakage at 20 uM by fluorescence based assay; assay type: ADME
# Staphylococcus aureus [17] = assay: Antibiofilm activity against Staphylococcus aureus assessed as inhibition of biofilm formation incubated for 48 hrs by crystal violet staining assay; assay type: functional
# [18] = Induction of yeast killing at 50 uM incubated for 72 hrs in presence of Ura3 and absence of FOA by absorbance based analysis; settings: saccharomyces cerevisiae
# Pseudomonas aeruginosa [19] = assay: Antibacterial activity against Pseudomonas aeruginosa assessed as reduction in microbial growth after 24 hrs in presence of polymyxin B by microplate reader method; assay type: functional
# Cell membrane [20] = assay: Disruption of membrane integrity in Escherichia coli at 2 times MIC measured after 20 mins by SEM analysis
# Pseudomonas aeruginosa [21] = assay: Potentiation of polymyxin B-induced antibacterial activity against Pseudomonas aeruginosa assessed as polymyxin B MIC incubated for 24 hrs by microplate reader method; assay type: functional
# Escherichia coli [22] = assay: Antibacterial activity against Escherichia coli assessed as reduction in microbial growth after 24 hrs by microplate reader method; assay type: functional
# Staphylococcus aureus [23] = assay: Antibacterial activity against Staphylococcus aureus assessed as reduction in microbial growth after 24 hrs by microplate reader method; assay type: functional
# Lipid bilayer [24] = assay: Binding affinity to bacterial inner membrane mimic DOPE/DOPG (3:1) large unilamellar vesicles assessed as calcein leakage at 20 uM by fluorescence based assay
# Pseudomonas aeruginosa [25] = assay: Synergistic antibacterial activity against Pseudomonas aeruginosa assessed as fractional inhibitory concentration index incubated for 24 hrs in presence of Polymyxin B; assay type: functional
# BE(2)-C = assay: Cytotoxicity against human BE(2)-C cells assessed as reduction in cell viability incubated for 48 hrs by MTT assay; assay type: cell-based
# [26] = Inhibition of transcriptional machinery using Puc19-lacCONS plasmid DNA and Escherichia coli RNA polymerase-sigma70 holoenzyme at 40 uM incubated for 35 mins followed by NTP addition for 30 mins by spectrofluorometer analysis; assay type: functional; settings: time 65.0 min
# [27] = target: NAD-dependent histone deacetylase SIR2 (Saccharomyces cerevisiae S288c) (UniProt P06700); assay: Inhibition of yeast sirtuin2-mediated Ura3 transcriptional silencing at telomeric locus assessed as yeast killing at 50 uM incubated for 72 hrs in presence of FOA by absorbance based analysis
# Escherichia coli [28] = assay: Antibiofilm activity against Escherichia coli assessed as biofilm eradication at 2XMBEC incubated for 12 hrs by SYTO9/PI staining based microscopic analysis; assay type: functional, organism-based
# NAD-dependent histone deacetylase SIR2 (Saccharomyces cerevisiae S288c), sequence (P06700 whole entry): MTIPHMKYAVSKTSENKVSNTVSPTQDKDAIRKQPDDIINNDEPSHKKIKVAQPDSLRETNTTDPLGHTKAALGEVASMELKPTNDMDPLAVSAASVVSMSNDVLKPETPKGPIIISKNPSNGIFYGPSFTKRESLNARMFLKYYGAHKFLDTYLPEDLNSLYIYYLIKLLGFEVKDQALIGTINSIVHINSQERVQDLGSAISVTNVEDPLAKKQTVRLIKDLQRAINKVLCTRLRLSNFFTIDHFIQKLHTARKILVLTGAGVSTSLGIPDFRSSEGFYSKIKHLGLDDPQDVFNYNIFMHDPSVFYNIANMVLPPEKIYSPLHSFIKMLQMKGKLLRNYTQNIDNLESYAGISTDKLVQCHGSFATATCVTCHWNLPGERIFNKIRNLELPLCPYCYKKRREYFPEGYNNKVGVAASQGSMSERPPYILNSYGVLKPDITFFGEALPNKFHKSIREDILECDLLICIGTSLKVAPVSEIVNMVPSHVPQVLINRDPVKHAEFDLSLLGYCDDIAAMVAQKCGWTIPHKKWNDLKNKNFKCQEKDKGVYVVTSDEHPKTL
compound,measurement,setting,value
CC(=O)N[C@@H](CCCCN)C(=O)NCC(=O)N[C@@H](CC(C)C)C(=O)N[C@@H](CCCNC(=N)N)C(=O)N[C@@H](CCCCNC(=O)C(F)(F)F)C(=O)N[C@@H](Cc1ccccc1)C(=O)NCC(=O)N[C@@H](C)C(=O)N[C@@H](CCCCN)C(=O)N[C@@H](CCCNC(=N)N)C(=O)N[C@@H](Cc1cnc[nH]1)C(=O)N[C@@H](CCCNC(=N)N)C(=O)N[C@@H](CS)C(N)=O (Ac-KGLRK(Tfa)FGAKRHRC-NH2),MIC,Escherichia coli [1],0.05 µM
same,IC50,HeLa,94.6 µM
same,Activity,Lipid bilayer [2],Active
same,fractional inhibitory concentration index (FICI),Escherichia coli [3],0.36
same,MBEC,Staphylococcus aureus [4],12.5 µM
same,Activity,Staphylococcus aureus [5],Active
same,MIC,Pseudomonas aeruginosa [6],> 250 µM
same,MIC,Escherichia coli [7],15.6 µM
same,fold change (FC),Staphylococcus aureus [8],6
same,MBIC,Escherichia coli [9],inactive
same,Activity,Cell membrane [10],inactive
same,MBEC,Escherichia coli [11],inactive
same,fractional inhibitory concentration index (FICI),Staphylococcus aureus [12],0.19
same,"hemolysis at 1 h, 1000 µM",[13],< 5%
same,MIC,Staphylococcus aureus [14],0.31 µM
same,MIC,Staphylococcus aureus [15],0.38 µM
same,Activity,Lipid bilayer [16],< 20%
same,MBIC,Staphylococcus aureus [17],6.3 µM
same,Activity,[18],Toxic
same,MIC,Pseudomonas aeruginosa [19],25 µM
same,Activity,Cell membrane [20],inactive
same,MIC,Pseudomonas aeruginosa [21],0.1 µM
same,MIC,Escherichia coli [22],125 µM
same,MIC,Staphylococcus aureus [23],1.5 µM
same,Activity,Lipid bilayer [24],70%
same,fractional inhibitory concentration index (FICI),Pseudomonas aeruginosa [25],0.36
same,IC50,BE(2)-C,78 µM
same,inhibition,[26],Active
same,inhibition,[27],Active
same,Activity,Escherichia coli [28],Active

# From ChEMBL document CHEMBL4814071, “Synthesis and antibacterial study of cell-penetrating peptide conjugated trifluoroacetyl and thioacetyl lysine modified peptides” (Eur J Med Chem, 2021)
